Source: PubChem BioAssay AID1963873 (Molecular Pharmacology Branch, DTP, NCI, 2024)

Tested on: 276233-004-R-J1-PDC KRAS spheroids with HUVEC/MSC, viability
Assay: Anticancer human tumor 276233-004-R-J1-PDC patient-derived colon adenocarcinoma cell line growth inhibition [KRAS2]
Conditions: for IC50: curve of first compound; for viability, T/C: stronger effect = lower value
Outline: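 Combination screen of spheroid viability in tumor-cell co-cultures with endothelial (HUVEC) and mesenchymal stem cell stroma. Each agent was tested in half-log dilutions, topping at clinical Cmax or at 10 microM without a known Cmax.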

[1] = second compound 0.0316 µM, first compound 0.0316 µM
[2] = second compound 0.0316 µM, first compound 0.1 µM
[3] = second compound 0.1 µM, first compound 0.0316 µM
[4] = second compound 0.1 µM, first compound 0.1 µM
[5] = second compound 0.316 µM, first compound 0.0316 µM
[6] = second compound 0.316 µM, first compound 0.1 µM
[7] = second compound 1 µM, first compound 0.0316 µM
[8] = second compound 1 µM, first compound 0.1 µM
[9] = second compound 3.16 µM, first compound 0.0316 µM
[10] = second compound 3.16 µM, first compound 0.1 µM
[11] = second compound 0.0316 µM, first compound 0.316 µM
[12] = second compound 0.0316 µM, first compound 1 µM
[13] = second compound 0.0316 µM, first compound 3.16 µM
[14] = second compound 0.0316 µM, first compound 10 µM
[15] = second compound 0.1 µM, first compound 0.316 µM
[16] = second compound 0.1 µM, first compound 1 µM
[17] = second compound 0.1 µM, first compound 3.16 µM
[18] = second compound 0.1 µM, first compound 10 µM
[19] = second compound 0.316 µM, first compound 0.316 µM
[20] = second compound 0.316 µM, first compound 1 µM
[21] = second compound 0.316 µM, first compound 3.16 µM
[22] = second compound 0.316 µM, first compound 10 µM
[23] = second compound 1 µM, first compound 0.316 µM
[24] = second compound 1 µM, first compound 1 µM
[25] = second compound 1 µM, first compound 3.16 µM
[26] = second compound 1 µM, first compound 10 µM
[27] = second compound 3.16 µM, first compound 0.316 µM
[28] = second compound 3.16 µM, first compound 1 µM
[29] = second compound 3.16 µM, first compound 3.16 µM
[30] = second compound 3.16 µM, first compound 10 µM
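Note: cells exposed to agents for seven days before viability read.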
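Throughout, for viability, T/C: 100% = DMSO vehicle control wells and lower values mean fewer viable cells.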

Row | SMILES | IC50 (second compound 0.0316 µM) [µM] | IC50 (second compound 0.1 µM) [µM] | IC50 (second compound 0.316 µM) [µM] | IC50 (second compound 1 µM) [µM] | IC50 (second compound 3.16 µM) [µM] | viability, T/C [1] [%] | viability, T/C [2] [%] | viability, T/C [3] [%] | viability, T/C [4] [%] | viability, T/C [5] [%] | viability, T/C [6] [%] | viability, T/C [7] [%] | viability, T/C [8] [%] | viability, T/C [9] [%] | viability, T/C [10] [%] | viability, T/C [11] [%] | viability, T/C [12] [%] | viability, T/C [13] [%] | viability, T/C [14] [%] | viability, T/C [15] [%] | other results
1 | CC(C)n1nc(-c2ccc3oc(N)nc3c2)c2c(N)ncnc21 + C=CC(=O)N1CCN(c2nc(OCC3CCCN3C)nc3c2CCN(c2cccc4cccc(C)c24)C3)CC1CC#N | > 0.1 | > 0.1 | > 0.1 | > 0.1 | 0.0458 | 63.2 | 57.4 | 63.2 | 55.6 | 56.4 | 52.8 | 65.5 | 70.1 | 65.8 | 16.1 | – | – | – | – | – | viability, T/C (second compound 0.0316 µM, first compound 0.000316 µM): 88.4%; viability, T/C (second compound 0.0316 µM, first compound 0.001 µM): 143%; viability, T/C (second compound 0.0316 µM, first compound 0.00316 µM): 83%; viability, T/C (second compound 0.0316 µM, first compound 0.01 µM): 85.3%; viability, T/C (second compound 0.1 µM, first compound 0.000316 µM): 95.8%; viability, T/C (second compound 0.1 µM, first compound 0.001 µM): 85.6%; viability, T/C (second compound 0.1 µM, first compound 0.00316 µM): 80.9%; viability, T/C (second compound 0.1 µM, first compound 0.01 µM): 62.8%; viability, T/C (second compound 0.316 µM, first compound 0.000316 µM): 85.9%; viability, T/C (second compound 0.316 µM, first compound 0.001 µM): 90.2%; viability, T/C (second compound 0.316 µM, first compound 0.00316 µM): 87.6%; viability, T/C (second compound 0.316 µM, first compound 0.01 µM): 62.9%; viability, T/C (second compound 1 µM, first compound 0.000316 µM): 82.8%; viability, T/C (second compound 1 µM, first compound 0.001 µM): 110%; viability, T/C (second compound 1 µM, first compound 0.00316 µM): 81.2%; viability, T/C (second compound 1 µM, first compound 0.01 µM): 70.9%; viability, T/C (second compound 3.16 µM, first compound 0.000316 µM): 72.6%; viability, T/C (second compound 3.16 µM, first compound 0.001 µM): 55.3%; viability, T/C (second compound 3.16 µM, first compound 0.00316 µM): 69.8%; viability, T/C (second compound 3.16 µM, first compound 0.01 µM): 75.6%
2 | CC1(C)CCC(CN2CCN(c3ccc(C(=O)NS(=O)(=O)c4ccc(NCC5CCOCC5)c([N+](=O)[O-])c4)c(Oc4cnc5[nH]ccc5c4)c3)CC2)=C(c2ccc(Cl)cc2)C1 + C=CC(=O)N1CCN(c2nc(OCC3CCCN3C)nc3c2CCN(c2cccc4cccc(C)c24)C3)CC1CC#N | > 10 | > 10 | 8.09 | 3.05 | < 0.0316 | 90.7 | 102 | 80.3 | 113 | 102 | 89 | 83.7 | 111 | 47.6 | 42.6 | 113 | 94.4 | 88 | 56 | 85.5 | viability, T/C [16]: 86.2%; viability, T/C [17]: 96.6%; viability, T/C [18]: 61.4%; viability, T/C [19]: 87.1%; viability, T/C [20]: 126%; viability, T/C [21]: 82.1%; viability, T/C [22]: 42.7%; viability, T/C [23]: 90.5%; viability, T/C [24]: 100%; viability, T/C [25]: 48.4%; viability, T/C [26]: 22.1%; viability, T/C [27]: 41.9%; viability, T/C [28]: 23.2%; viability, T/C [29]: 0.96%; viability, T/C [30]: 0.77%
3 | COc1cc(Nc2ncc3c(n2)-c2ccc(Cl)cc2C(c2c(F)cccc2OC)=NC3)ccc1C(=O)O + C=CC(=O)N1CCN(c2nc(OCC3CCCN3C)nc3c2CCN(c2cccc4cccc(C)c24)C3)CC1CC#N | > 10 | > 10 | > 10 | > 10 | 2.12 | 98.9 | 85.5 | 85.9 | 91.1 | 94.5 | 79 | 79.8 | 81.3 | 45.9 | 64 | 89.2 | 86.2 | 77.9 | 77 | 82.2 | viability, T/C [16]: 73.6%; viability, T/C [17]: 83.3%; viability, T/C [18]: 81%; viability, T/C [19]: 70.9%; viability, T/C [20]: 67.8%; viability, T/C [21]: 83.1%; viability, T/C [22]: 63.9%; viability, T/C [23]: 94.9%; viability, T/C [24]: 96.9%; viability, T/C [25]: 67.2%; viability, T/C [26]: 70.5%; viability, T/C [27]: 55.7%; viability, T/C [28]: 54.1%; viability, T/C [29]: 47.4%; viability, T/C [30]: 26.9%
4 | COc1cc2nccc(Oc3ccc(NC(=O)C4(C(=O)Nc5ccc(F)cc5)CC4)cc3)c2cc1OC + C=CC(=O)N1CCN(c2nc(OCC3CCCN3C)nc3c2CCN(c2cccc4cccc(C)c24)C3)CC1CC#N | > 10 | > 10 | > 10 | > 10 | 1.68 | 80 | 89.7 | 93.5 | 116 | 76.2 | 79.5 | 71.5 | 74.5 | 52.1 | 63.4 | 91 | 78.9 | 87.6 | 90.6 | 82.5 | viability, T/C [16]: 94.2%; viability, T/C [17]: 74.8%; viability, T/C [18]: 70.6%; viability, T/C [19]: 86%; viability, T/C [20]: 84.6%; viability, T/C [21]: 84.7%; viability, T/C [22]: 91.2%; viability, T/C [23]: 67.1%; viability, T/C [24]: 72%; viability, T/C [25]: 80.1%; viability, T/C [26]: 75.7%; viability, T/C [27]: 65%; viability, T/C [28]: 76.7%; viability, T/C [29]: 32.6%; viability, T/C [30]: 3.91%
